Test results reported in US7517877B2, “5-substituted-alkylaminopyrazole derivatives as pesticides” (Merial Limited, priority 2002, dated 2009).

Experiments:
[1] = test system: Nephotettix cinciceps (Rice Leafhopper); test: Method C: Nephotettix cinciceps (Rice Leafhopper) screen, dipped rice plants; format: in vivo, Nephotettix cincticeps; details: 144 h, test concentration of 100 ppm, L3 larvae, after 6 days storage
Method: Method C: Nephotettix Cinciceps (Rice Leafhopper) Screen
The leaves of 12 rice plants having a stem length of 8 cm were dipped for 5 seconds into an aqueous solution of the formulated test compound. After the solution had run off, the rice plants treated in this manner were placed in a Petri dish and populated with about 20 larvae (L3 stage) of Nephotettix cincticeps. The Petri dish was closed and then stored in a climate chamber (16 hours of light/day, 25° C., 40-60% relative humidity). After 6 days storage, the percentage mortality of leafhopper larvae was determined.

melting point [°C]	Compound	mortality at 100 ppm [1] [%]
80	CCSCCCNc1c(S(=O)(=O)C(F)(F)F)c(C#N)nn1-c1c(Cl)cc(C(F)(F)F)cc1Cl [Compound 1-14, 1-(2,6-dichloro-4-trifluoromethylphenyl)-3-cyano-5-(3-ethylthiopropylamino)-4-trifluoromethylsulfonylpyrazole]	
	[O-][S+](C1CCSC1)C1CCSC1 (stereo not drawn) [Compound 1-37, 3-tetrahydrothienyl sulfoxide]	≥ 98
89	CCSCCCN(C)c1c(S(=O)(=O)C(F)(F)F)c(C#N)nn1-c1c(Cl)cc(C(F)(F)F)cc1Cl [Compound 2-14, 1-(2,6-dichloro-4-trifluoromethylphenyl)-3-cyano-5-[N-(3-ethylthiopropyl)-N-methylamino]-4-trifluoromethylsulfonylpyrazole]	
